Among the data in patent US9670142B2, “1,3-diaminocyclopentane carboxamide derivatives” (Merck Patent GmbH, priority 2013, dated 2017) are IC50 values, retold here.

human fatty acid synthase FASN, sequence (P49327 whole entry): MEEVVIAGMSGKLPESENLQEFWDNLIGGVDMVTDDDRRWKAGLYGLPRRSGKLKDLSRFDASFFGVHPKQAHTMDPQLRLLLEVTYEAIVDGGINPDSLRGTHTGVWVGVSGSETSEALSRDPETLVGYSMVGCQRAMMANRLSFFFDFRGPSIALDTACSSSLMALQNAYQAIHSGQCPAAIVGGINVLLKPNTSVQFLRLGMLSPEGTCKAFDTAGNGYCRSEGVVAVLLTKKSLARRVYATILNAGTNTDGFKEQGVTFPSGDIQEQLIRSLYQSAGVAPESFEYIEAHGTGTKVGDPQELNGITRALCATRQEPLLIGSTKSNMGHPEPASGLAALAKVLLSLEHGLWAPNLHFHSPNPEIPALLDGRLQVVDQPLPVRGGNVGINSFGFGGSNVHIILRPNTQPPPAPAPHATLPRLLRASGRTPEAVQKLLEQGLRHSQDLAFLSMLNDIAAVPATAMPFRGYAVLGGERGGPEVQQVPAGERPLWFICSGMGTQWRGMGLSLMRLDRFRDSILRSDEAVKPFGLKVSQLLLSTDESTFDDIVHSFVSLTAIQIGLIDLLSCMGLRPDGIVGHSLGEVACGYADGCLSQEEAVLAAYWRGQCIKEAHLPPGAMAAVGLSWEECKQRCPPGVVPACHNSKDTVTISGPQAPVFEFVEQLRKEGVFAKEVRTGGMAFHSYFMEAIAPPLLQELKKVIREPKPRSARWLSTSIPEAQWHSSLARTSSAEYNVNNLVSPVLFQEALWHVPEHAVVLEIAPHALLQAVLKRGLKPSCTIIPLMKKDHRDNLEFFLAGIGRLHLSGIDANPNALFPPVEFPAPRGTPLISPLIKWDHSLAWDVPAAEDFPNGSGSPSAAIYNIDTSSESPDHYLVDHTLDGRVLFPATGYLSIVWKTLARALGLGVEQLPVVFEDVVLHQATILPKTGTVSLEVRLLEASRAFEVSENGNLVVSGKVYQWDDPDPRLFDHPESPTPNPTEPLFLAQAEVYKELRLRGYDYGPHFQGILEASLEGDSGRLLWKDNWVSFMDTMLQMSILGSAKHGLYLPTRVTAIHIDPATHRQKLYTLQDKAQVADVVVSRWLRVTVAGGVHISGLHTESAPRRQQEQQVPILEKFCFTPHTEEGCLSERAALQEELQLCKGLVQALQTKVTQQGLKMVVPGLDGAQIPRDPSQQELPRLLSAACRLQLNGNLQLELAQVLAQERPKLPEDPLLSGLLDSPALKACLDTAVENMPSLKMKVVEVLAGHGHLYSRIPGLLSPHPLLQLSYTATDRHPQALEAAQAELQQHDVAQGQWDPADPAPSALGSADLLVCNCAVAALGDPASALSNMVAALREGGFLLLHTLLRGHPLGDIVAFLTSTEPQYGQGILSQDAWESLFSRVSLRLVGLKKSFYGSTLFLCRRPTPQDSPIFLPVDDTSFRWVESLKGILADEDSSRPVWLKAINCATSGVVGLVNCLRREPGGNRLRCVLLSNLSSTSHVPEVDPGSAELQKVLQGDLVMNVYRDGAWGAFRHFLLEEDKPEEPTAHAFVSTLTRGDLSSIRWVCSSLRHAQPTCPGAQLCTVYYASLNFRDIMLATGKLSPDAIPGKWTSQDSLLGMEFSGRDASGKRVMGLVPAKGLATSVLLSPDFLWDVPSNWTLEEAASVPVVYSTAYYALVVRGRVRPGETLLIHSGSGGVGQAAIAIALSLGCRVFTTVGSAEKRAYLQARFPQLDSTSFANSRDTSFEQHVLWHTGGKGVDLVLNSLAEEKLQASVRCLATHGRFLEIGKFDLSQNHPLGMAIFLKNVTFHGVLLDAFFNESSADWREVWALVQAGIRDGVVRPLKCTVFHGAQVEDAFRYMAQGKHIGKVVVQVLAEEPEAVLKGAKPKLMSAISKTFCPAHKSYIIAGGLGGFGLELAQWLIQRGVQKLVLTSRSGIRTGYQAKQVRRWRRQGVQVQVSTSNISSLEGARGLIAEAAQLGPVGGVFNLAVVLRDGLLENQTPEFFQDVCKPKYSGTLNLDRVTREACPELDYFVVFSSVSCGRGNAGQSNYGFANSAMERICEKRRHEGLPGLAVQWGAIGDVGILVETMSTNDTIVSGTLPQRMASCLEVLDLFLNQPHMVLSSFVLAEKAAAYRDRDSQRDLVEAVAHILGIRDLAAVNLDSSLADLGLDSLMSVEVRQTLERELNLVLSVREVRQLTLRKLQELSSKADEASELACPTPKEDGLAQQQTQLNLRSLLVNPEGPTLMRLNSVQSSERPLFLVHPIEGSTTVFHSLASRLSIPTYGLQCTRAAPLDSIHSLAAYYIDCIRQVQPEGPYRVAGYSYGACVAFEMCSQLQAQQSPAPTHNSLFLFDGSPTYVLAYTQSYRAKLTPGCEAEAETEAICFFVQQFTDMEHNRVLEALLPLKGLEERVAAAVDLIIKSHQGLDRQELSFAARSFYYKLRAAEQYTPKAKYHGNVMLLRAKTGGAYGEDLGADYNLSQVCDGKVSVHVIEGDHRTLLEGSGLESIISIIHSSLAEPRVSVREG

The experiment concerns the target human fatty acid synthase FASN (Homo sapiens (Human), UniProt P49327). Put plainly: Biochemical activity testing of human fatty acid synthase FASN (NADPH fluorescence intensity enzyme assay). The following applies: human recombinant full-length fatty acid synthase. A digest of the protocol: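 In-house Sf9-expressed full-length enzyme (3 μL of 40 nM) in 50 mM potassium phosphate pH 7.0 with glutathione, BSA and Tween-20, plus NADPH (2 μL of 200 μM), preincubated ≥15 min with compound (10 concentrations from 30 μM final, 1% DMSO). Acetyl-CoA/malonyl-CoA added; NADPH fluorescence (ex 340/em 460 nm) read before and after 30 min at room temperature, difference used for IC50.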
For orientation: IC50 means the midpoint of a concentration-inhibition curve. For `COCC(=O)N[C@H]1CC[C@@H](N(C)C(=O)c2ccc(-c3nc4ccccc4o3)cc2)C1` [Compound A34, 4-benzoxazol-2-yl-N-[(1R,3S)-3-(2-methoxy-acetylamino)-cyclopentyl]-N-methyl-benzamide], the IC50 was less than 300 nM.

Regarding `CCC(=O)N[C@H]1CC[C@@H](N(C)C(=O)c2ccc(-c3ccc4[nH]ccc4c3)nn2)C1` [Compound A113, 6-(1H-indol-5-yl)-pyridazine-3-carboxylic acid methyl-((1R,3S)-3-propionylamino-cyclopentyl)-amide], the IC50 is less than 300 nM.

With `CCC(=O)N[C@H]1CC[C@@H](N(C)C(=O)c2ccc(-c3ccc(Cl)cc3F)cc2)C1` [Compound A92, 4′-chloro-2′-fluoro-biphenyl-4-carboxylic acid methyl-((1R,3S)-3-propionylamino-cyclopentyl)-amide], the IC50 is less than 300 nM.

Regarding `CCC(=O)N[C@H]1CC[C@@H](N(C)C(=O)c2ccc(-c3ccc4c(c3)OCO4)cc2)C1` [Compound A58, 4-benzo[1,3]dioxol-5-yl-N-methyl-N-((1R,3S)-3-propionylamino-cyclopentyl)-benzamide], the IC50 was less than 300 nM.

Consider `CCC(=O)N[C@H]1CC[C@@H](N(C)C(=O)c2ccc(-c3ccc4[nH]ccc4c3F)nc2)C1` [Compound A135, 6-(4-fluoro-1H-indol-5-yl)-N-methyl-N-((1R,3S)-3-propionylamino-cyclopentyl)-nicotinamide], for which the IC50 is less than 300 nM.

For `CCC(=O)N[C@H]1CC[C@@H](N(C)C(=O)c2cnc(-c3ccc4[nH]ccc4c3)cn2)C1` [Compound A132, 5-(1H-indol-5-yl)-pyrazine-2-carboxylic acid methyl-((1R,3S)-3-propionylamino-cyclopentyl)-amide], the IC50 was less than 300 nM.

Consider `CN(C(=O)c1ccc(-c2nc3ccc(Cl)cc3o2)nn1)[C@@H]1CC[C@H](NC(=O)[C@@H]2CCCO2)C1` [Compound A158, 6-(6-chloro-1,3-benzoxazol-2-yl)-N-methyl-N-[(1R,3S)-3-[[(2S)-tetrahydrofuran-2-carbonyl]amino]cyclopentyl]pyridazine-3-carboxamide], for which the IC50 was in the range of 300 to 3000 nM.

For `CCC(=O)N[C@H]1CC[C@@H](N(C)C(=O)c2ccc(-c3ccc(Cl)c(F)c3)cc2)C1` [Compound A86, 4′-chloro-3′-fluoro-biphenyl-4-carboxylic acid methyl-((1R,3S)-3-propionylamino-cyclopentyl)-amide], the IC50 is less than 300 nM.

On to `CCC(=O)N[C@H]1CC[C@@H](N(C)C(=O)c2ccc(-c3nc4ccc(Cl)cc4o3)cc2)C1` [Compound A128, 4-(6-chloro-benzoxazol-2-yl)-N-methyl-N-((1R,3S)-3-propionylamino-cyclopentyl)-benzamide], for which the IC50 is less than 300 nM.

Consider `CCC(=O)N[C@H]1CC[C@@H](N(C)C(=O)c2ccc(-c3ccc4c(c3)c(CN)cn4C)cc2)C1` [Compound A152, 4-(3-aminomethyl-1-methyl-1H-indol-5-yl)-N-methyl-N-((1R,3S)-3-propionylamino-cyclopentyl)-benzamide], for which the IC50 was less than 300 nM.

In the case of `CCC(=O)N[C@H]1CC[C@@H](N(C)C(=O)c2ccc(-c3ccc4c(c3)NC(=O)C4)cc2)C1` [Compound A60, N-methyl-4-(2-oxo-2,3-dihydro-1H-indol-6-yl)-N-((1R,3S)-3-propionylamino-cyclopentyl)-benzamide], the half-inhibitory concentration (IC50) is less than 300 nM.

On to `CC[C@H](C)CC(=O)N[C@H]1CC[C@@H](N(C)C(=O)c2ccc(-c3nc4ccccc4o3)cc2)C1` [Compound A30, 4-benzoxazol-2-yl-N-methyl-N-[(1R,3S)-3-((S)-3-methyl-pentanoylamino)-cyclopentyl]-benzamide], for which the IC50 was less than 300 nM.

Regarding `CCC(=O)N[C@H]1CC[C@@H](N(C)C(=O)c2ccc(-c3nc4ccccc4o3)cn2)C1` [Compound A16, 5-benzoxazol-2-yl-pyridine-2-carboxylic acid methyl-((1R,3S)-3-propionylamino-cyclopentyl)-amide], the IC50 is less than 300 nM.

`CCC(=O)N[C@H]1CC[C@@H](N(C)C(=O)c2ccc(-c3ccc(C)cc3)cc2)C1` [Compound A73, 4′-methyl-biphenyl-4-carboxylic acid methyl-((1R,3S)-3-propionylamino-cyclopentyl)-amide]: the IC50 was less than 300 nM.

For `CCC(=O)N[C@H]1CC[C@@H](N(C)C(=O)c2ccc(-c3ccc4cn[nH]c4c3)cc2)C1` [Compound A46, 4-(1H-indazol-6-yl)-N-methyl-N-((1R,3S)-3-propionylamino-cyclopentyl)-benzamide], the IC50 is less than 300 nM.

For the compound `CCC(=O)N[C@H]1CC[C@@H](N(C)C(=O)c2ccc(-c3ccc(OCC4CC4)cc3)cc2)C1` [Compound A70, 4′-cyclopropylmethoxy-biphenyl-4-carboxylic acid methyl-((1R,3S)-3-propionylamino-cyclopentyl)-amide], the IC50 is less than 300 nM.

As to `CCC(=O)N[C@H]1CC[C@@H](N(C)C(=O)c2ccc(-c3ccc(F)c(Cl)c3)cc2)C1` [Compound A63, 3′-chloro-4′-fluoro-biphenyl-4-carboxylic acid methyl-((1R,3S)-3-propionylamino-cyclopentyl)-amide], the IC50 is less than 300 nM.

With `CC(=O)N[C@@H](C(=O)N[C@H]1CC[C@@H](N(C)C(=O)c2ccc(-c3nc4ccccc4o3)cc2)C1)C(C)C` [Compound A42, N-[(1R,3S)-3-((R)-2-acetylamino-3-methyl-butyrylamino)-cyclopentyl]-4-benzoxazol-2-yl-N-methyl-benzamide], the IC50 lay within 3000 to 50000 nM.

`CCC(=O)N[C@H]1CC[C@@H](N(C)C(=O)c2ccc(-c3nc4cc(Cl)ccc4o3)cc2)C1` [Compound A9, 4-(5-chloro-benzoxazol-2-yl)-N-methyl-N-((1R,3S)-3-propionylamino-cyclopentyl)-benzamide]: the IC50 was less than 300 nM.

Take `CCC(=O)N[C@H]1CC[C@@H](N(C)C(=O)c2ccc(-c3nc4ccccc4n3C)cc2)C1` [Compound A123, N-methyl-4-(1-methyl-1H-benzimidazol-2-yl)-N-((1R,3S)-3-propionylamino-cyclopentyl)-benzamide]: the IC50 is less than 300 nM.

Regarding `CCC(=O)N[C@H]1CC[C@@H](N(C)C(=O)c2ccc(-c3ccc(C4CCC(C)CC4)cc3F)cc2)C1` (stereo partly drawn) [Compound A54, 2′-fluoro-4′-(4-methyl-cyclohexyl)-biphenyl-4-carboxylic acid methyl-((1R,3S)-3-propionylamino-cyclopentyl)-amide], the IC50 lay in the range of 300 to 3000 nM.

`CN(C(=O)c1ccc(-c2nc3ccccc3o2)cc1)[C@@H]1CC[C@H](NC(=O)CC2CCCC2)C1` [Compound A44]: the IC50 was less than 300 nM.

With `C[C@H](O)C(=O)N[C@H]1CC[C@@H](N(C)C(=O)c2ccc(-c3nc4ccccc4o3)cc2)C1` [Compound A37, 4-benzoxazol-2-yl-N-[(1R,3S)-3-((S)-2-hydroxy-propionylamino)-cyclopentyl]-N-methyl-benzamide], the IC50 is less than 300 nM.

For the compound `CCC(=O)N[C@H]1CC[C@@H](N(C)C(=O)c2ccc(-c3ccc4c(ccn4C)c3)cn2)C1` [Compound A110, 5-(1-methyl-1H-indol-5-yl)-pyridine-2-carboxylic acid methyl-((1R,3S)-3-propionylamino-cyclopentyl)-amide], the IC50 is less than 300 nM.

On to `CCC(=O)N[C@H]1CC[C@@H](N(C)C(=O)c2ccc(C#Cc3ccncc3)cc2)C1` [Compound A15, N-methyl-N-((1R,3S)-3-propionylamino-cyclopentyl)-4-pyridin-4-ylethynyl-benzamide], for which the IC50 is less than 300 nM.

For `CCC(=O)N[C@H]1CC[C@@H](N(C)C(=O)c2ccc(-c3ccc(C(F)(F)F)cc3)cc2)C1` [Compound A64, 4′-trifluoromethyl-biphenyl-4-carboxylic acid methyl-((1R,3S)-3-propionylamino-cyclopentyl)-amide], the IC50 was less than 300 nM.

`CCC(F)(F)C(=O)N[C@H]1CC[C@@H](N(C)C(=O)c2ccc(-c3nc4ccccc4o3)cc2)C1` [Compound A27, 4-benzoxazol-2-yl-N-[(1R,3S)-3-(2,2-difluoro-butyrylamino)-cyclopentyl]-N-methyl-benzamide]: the IC50 was less than 300 nM.

As for `CCC(=O)N[C@H]1CC[C@@H](N(C)C(=O)c2ccc(-c3ccc(F)cc3)cc2)C1` [Compound A53, 4′-fluoro-biphenyl-4-carboxylic acid methyl-((1R,3S)-3-propionylamino-cyclopentyl)-amide], the IC50 was less than 300 nM.

For the compound `CCC(=O)N[C@H]1CC[C@@H](N(C)C(=O)c2ccc(-c3cn4cccnc4n3)cc2)C1` [Compound A10, 4-imidazo[1,2-a]pyrimidin-2-yl-N-methyl-N-((1R,3S)-3-propionylamino-cyclopentyl)-benzamide], the IC50 is less than 300 nM.

In the case of `CCC(=O)N[C@H]1CC[C@@H](N(C)C(=O)c2ccc(-c3ccc4[nH]ccc4c3F)c(F)c2)C1` [Compound A151, 3-fluoro-4-(4-fluoro-1H-indol-5-yl)-N-methyl-N-((1R,3S)-3-propionylamino-cyclopentyl)-benzamide], the IC50 is less than 300 nM.

Take `CN(C(=O)c1ccc(-c2nc3ccc(Cl)cc3o2)cc1)[C@@H]1CC[C@H](NC(=O)[C@@H]2CCCO2)C1` [Compound A138, (S)-tetrahydro-furan-2-carboxylic acid ((1S,3R)-3-{[4-(6-chloro-benzooxazol-2-yl)-benzoyl]-methyl-amino}-cyclopentyl)-amide]: the IC50 is less than 300 nM.

Take `CCC(=O)N[C@H]1CC[C@@H](N(C)C(=O)c2ccc(-c3ccc(C#N)c(F)c3)cc2)C1` [Compound A71, 4′-cyano-3′-fluoro-biphenyl-4-carboxylic acid methyl-((1R,3S)-3-propionylamino-cyclopentyl)-amide]: the IC50 was less than 300 nM.

For `CCC(=O)N[C@H]1CC[C@@H](N(C)C(=O)c2ccc(-c3cc(F)c4[nH]ccc4c3)nn2)C1` [Compound A136, 6-(7-fluoro-1H-indol-5-yl)-pyridazine-3-carboxylic acid methyl-((1R,3S)-3-propionylamino-cyclopentyl)-amide], the IC50 fell in the range of 300 to 3000 nM.
